Measurements published in publication PMC4669759 (Cell Death & Disease, 2015).

Tests used:
[1] = target: T1, BCL-XL–BCL-XS interactions (Homo sapiens, UniProt Q07817); assay: Mammalian two-hybrid assay, BCL-XL–BCL-XS, HeLa cells; assay type: cell-based; details: 24 h, luciferase two-hybrid
T1 construct: expressed in transfected cells; host or cells: HeLa cells stably expressing a GAL4-luciferase reporter
Procedure: (a) H929 cells were treated with increasing concentrations of A-1210477 for 4 h. […] All data represent the mean of triplicate experiments, with error bars indicating the S.D. (b) Quantitative measurement of protein–protein interactions using a luciferase-based mammalian two-hybrid assay. […] All data represent the means of triplicate experiments, with error bars indicating the S.Ds.
HeLa cells stably expressing a GAL4-luciferase reporter were seeded into 10 cm dishes at 5 × 10^5 cells per plate. In all, 24 μg of a plasmid expressing both the ‘bait' and ‘prey' fusion proteins (GAL4DBD-BIM and VP16AD-BCL-2, GAL4DBD-BCL-XL and VP16AD- BCL-XS, or GAL4DBD-MCL-1 and VP16AD-NOXA, respectively) were mixed with 1.5 ml OptiMEM (Invitrogen). Separately, 24 μl Lipofectamine 2000 (Invitrogen) were mixed with 1.5 ml OptiMEM. Both solutions were incubated for 5 min (RT) and then mixed together for 20 min. Three milliliters of the mixture was added to cells in 12 ml culture medium lacking antibiotics, incubated at 37 °C for 24 h, and then transferred to 96-well plates at 20 000 cells per well. Compounds were added in half-log dilutions, starting from 1 μM and ending at 0.0001 μM for 24 h, and luciferase activity was assessed using ONE-Glo reagent (Promega). All data were plotted as the percentage of complex remaining relative to untreated controls.

BCL-2–BAD complexes = target: T2, BCL-2–BAD complexes (Homo sapiens, UniProt P10415); assay: Live cell redistribution assay, eGFP-BCL-2 and mCherry-BAD, T-REx-293 cells; assay type: cell-based; details: 10 μM, 300 min
T2 construct: expressed in transfected cells; host or cells: T-REx-293, bicistronic expression module integrated at a single genomic site
Excerpt: To further rule out potential artifacts associated with lysate detergents that can influence interactions between BCL-2 family proteins,[47] we employed a recently described real-time imaging method to assess the effects on BCL-2 family complexes in live cells.[48] Briefly, interacting pairs of BCL-2 family proteins are expressed as fluorescent fusion proteins at stoichiometric levels from a bicistronic expression module integrated into a single site of the genome in T-REx-293 cells. […]
Figure 3 A-1210477 inhibits MCL-1-BIM complexes in live cells. […] The decrease in amount of mCherry-BH3 protein localized to the mitochondria was quantified as a function of time as described in the Materials and Methods, normalized to DMSO control, and fitted to a single exponential decay. Each data point represents the mean change in intensity calculated from 10 fields of view, with error bars indicating the S.E.M. (b) T-REx-293 cells stably expressing eGFP-MCL-1(3B) and mCherry-BIMS(2A)ΔC were treated with 50 μM ABT-737 or increasing concentrations (1–25 μM) A-1210477 for 100 min. The decrease in amount of mCherry-BIMS(2A)ΔC localized to the mitochondria was quantified as in panel (a). (c) Representative fluorescence microscopic images of T-REx-293 cells stably expressing eGFP-BCL-2 family and interacting mCherry-BH3-only proteins before and after 300 min of treatment with 10 μM A-1210477 or (d) ABT-737. […]

MCL-1 = MCL-1 (Homo sapiens, UniProt Q07820); design: endogenous in cells; host or cells: HCC-1806; method as in PMID 25679114; details: in the presence of 10% human serum; cited from earlier work
Chain of MCL-1 (Q07820 whole entry): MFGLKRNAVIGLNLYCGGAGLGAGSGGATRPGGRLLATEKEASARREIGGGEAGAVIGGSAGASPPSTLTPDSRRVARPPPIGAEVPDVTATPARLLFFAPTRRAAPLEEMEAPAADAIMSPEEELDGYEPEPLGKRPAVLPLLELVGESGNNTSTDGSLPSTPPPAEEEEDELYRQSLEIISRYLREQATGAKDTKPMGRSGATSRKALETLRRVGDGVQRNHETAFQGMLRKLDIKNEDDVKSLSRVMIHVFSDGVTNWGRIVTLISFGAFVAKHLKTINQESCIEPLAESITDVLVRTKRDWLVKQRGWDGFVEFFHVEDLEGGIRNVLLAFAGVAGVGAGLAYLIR

T2 sequence (P10415 whole entry, one chain of several): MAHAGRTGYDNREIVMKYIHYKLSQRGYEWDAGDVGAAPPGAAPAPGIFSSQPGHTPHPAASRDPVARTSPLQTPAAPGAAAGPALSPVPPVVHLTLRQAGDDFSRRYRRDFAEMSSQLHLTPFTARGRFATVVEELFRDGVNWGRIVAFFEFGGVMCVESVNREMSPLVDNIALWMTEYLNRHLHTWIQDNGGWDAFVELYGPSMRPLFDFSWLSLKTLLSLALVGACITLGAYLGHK
T1 sequence (Q07817 whole entry, the tested form may be a part): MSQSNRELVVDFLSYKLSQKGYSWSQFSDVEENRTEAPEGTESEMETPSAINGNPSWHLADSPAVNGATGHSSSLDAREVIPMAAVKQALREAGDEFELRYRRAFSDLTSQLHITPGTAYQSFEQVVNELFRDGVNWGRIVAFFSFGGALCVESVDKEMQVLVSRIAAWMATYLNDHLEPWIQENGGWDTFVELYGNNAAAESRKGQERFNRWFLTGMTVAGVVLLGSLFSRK

Cc1nn(C)c(COc2ccc(N3CCN(S(=O)(=O)N(C)C)CC3)cc2)c1-c1cccc2c(CCCOc3cccc4ccccc34)c(C(=O)O)n(CCN3CCOCC3)c12 [A-1210477]
effect on BCL-XL–BCL-XS interactions [1]: no effect
redistribution of mCherry-BAD associated with BCL-2 (BCL-2–BAD complexes): no effect
shift in MCL-1 affinity (MCL-1): > 15 fold
